# From EP3246028A1, “QUINOLINE COMPOUNDS FOR INCREASING INSULINE RELEASE” (Max-Planck-Gesellschaft zur Förderung der Wissenschaften …, priority 2016, dated 2017)
# Entries after “also recorded” stand apart in the source; their conditions may differ.
# How the values were obtained:
# Format in all cases: cell-based
# RIN-5AH cells [1] = assay: Whole cell patch clamp (current clamp and voltage clamp)
# Protocol: For the purpose of investigation of membrane potential changes and membrane depolarization that triggers and activate voltage dependent calcium channels in beta cells, whole cell patch clamp studies were conducted with the compounds of the present invention. RIN-5AH cells were trypsinized and suspended in medium. Cells were transferred into the recording chamber and allowed to settle down before beginning a slow perfusion with the external buffer (138.0 mM; NaCl; 5.6 mM KCl; 11.1 mM Glucose; 1.2 mM; MgCl2; 2.6 mM CaCl2; 10.0 mM HEPES). Cells were sealed and patched by the application of a gentle negative pressure. Holding membrane potential was set up to -70mV for voltage clamp experiments. After patching the cells, at least 10s of base signal was recorded for both voltage clamp and current clamp measurements. External stimulation of cells was done by using Picospritzer II instrument (Parker) with 5psi for 30s with the desired concentrations (50uM and 500uM for compound 12 and 500uM for glibenclamide as control). The total recording time was set to 1-4 minutes.
# RIN-5AH cells [2] = assay: Calcium influx by FACS analysis (Fluo-4 AM fluorescence); settings: extracellular Ca2+ present, compound 12 at 5 µM
# Protocol: Calcium influx was measured by FACS analysis, similar to protocols previously described (Brewis, I. A., journal of andrology 21, 238-249, doi:10.1002/j.1939-4640.2000.tb02101.x (2000); Vines, A., Cytometry Part A 77A, 1091-1097, doi:10.1002/cyto.a.20974 (2010); Schepers, E., Journal of Immunological Methods 348, 74-82, doi:http://dx.doi.org/10.1016/j.jim.2009.07.002 (2009)).
# RIN-5AH cells (30,000 cells per well) were plated in 12 well plates and incubated overnight at 37°C and 5% CO2. Cells were stained with Fluo-4 AM (molecular probes, F14201) by using a 3µM stock solution prepared in HBSS with Ca2+ and Mg2+ (HBSS++) and with addition of a final amount of 0.02% Pluronic-F127 (molecular probes, P6867). Cells were incubated with 600ul of the dye/well for 1h at 37°C, in 5% CO2. They were washed 2x with Ca2+ and Mg2+ free HBSS (HBSS--) (Gibco, 14170) before moving to the next step of the protocol (see below).
# Cells were trypsinized for three minutes at 37°C and 5% CO2. The cell suspension was then diluted by adding 1ml HBSS-- / well and centrifuged for 3 minutes at 1200 RPM. Cells were resuspended in 1 mL of HBSS++ or HBSS-- before starting the measurement. Base fluorescent signal was recorded for 30 seconds followed by treatment with the various compounds by quickly adding the compounds to the FACS analysis tubes, while acquisition was not interrupted (gaps). […] Samples were measured continuously for the desired time and all measurements were completed within 40 minutes. Unstained cells and stained cells in external buffer without Ca2+ and Mg2+ (HBSS--) were used as negative controls for the treatments. Data were acquired on BD-FACSCalibur and the visualizations were prepared by FlowJo software.
# [3] = test system: RIN-5AH insulinoma beta cell line; assay: Insulin secretion (insulin ELISA of supernatants); settings: for insulin secretion relative to a DMSO control, compared to previously reported quinoline compounds: 5 µM compound 12 vs 50 µM quinidine or chloroquine, 10 µM levofloxacin or gatifloxacin, Figure 1
# Protocol: Culture medium and supplements were purchased from Life Technologies. The RIN-5AH insulinoma beta cell line was cultured in RPMI 1640 supplemented with 10% FBS, 2 mM glutamine. All culture media contained 1x penicillin-streptomycin. Cells were grown on 15 cm culture plates at 37°C under 5% CO2 in high humidity atmosphere.
# To determine the insulin level from the supernatants insulin ELISA kits from Millipore or Mercodia were used. RIN-5AH cells were seeded in 96 well or 12 well plates and grown overnight. RIN-5AH cells never reached more than 80% confluency before treatment. Cells were washed once with PBS before treatment. Cells were treated in medium for 2 hours and with 5 µM of insulin secretagogue according to the present invention, if not otherwise indicated. After treatment 100ul of supernatant was taken. Samples were assayed immediately or stored at -20°C until measurement. Dilutions were made if necessary and ELISA was subsequently performed according to the user's manual. Insulin secretion was normalized to cell number by MTT assay or to total protein amount by BCA assay (ThermoFisher Scientific, 23225). Plates were read on BioTrek Elx800 absorbance reader at 450 nm.
# RIN-5AH beta cells were treated with 5 µM compound 12 or 50 µM quinidine or chloroquine according to the above described protocol (Example 1).
Structure (SMILES),time membrane potential is kept in depolarized state / returns to its initial value (RIN-5AH cells [1]; current clamp) [s],"depolarization rate (RIN-5AH cells [1]; current clamp, 500 µM, Figure 3)","shift in membrane potential in current clamp mode (CC) (RIN-5AH cells [1]; from -70mV, after puffs for 30s, Figures 3A and 3B) [mV]",onset of increase of inward current (RIN-5AH cells [1]; voltage clamp),"maximal inward current versus GBA treated cells (RIN-5AH cells [1]; voltage clamp, 50 µM compound 12 vs GBA)","difference of maximal inward ion current versus GBA (RIN-5AH cells [1]; voltage clamp, same concentrations of compound 12 and GBA (500 µM))","duration of effect on inward current compared to GBA (RIN-5AH cells [1]; voltage clamp, Figure 4)","time until inward current flow returned back to baseline (RIN-5AH cells [1]; voltage clamp, Figure 4) [min]",divalent calcium cation influx (Fluo-4 AM fluorescence by FACS) (RIN-5AH cells [2]; Figure 2),"divalent calcium cation influx (Fluo-4 AM fluorescence by FACS) (RIN-5AH cells [2]; Figure 2, listed as compound 12)","insulin secretion relative to a DMSO control, compared to previously reported quinoline compounds [3]","insulin secretion relative to a DMSO control, compared to previously reported quinoline compounds ([3]; listed as compound 12)","activation at 5 µM ([3]; RIN-5AH cells, 5 µM, treated in medium for 2 hours, read-out: AV_INSULIN (percent increase in insulin secretion over a DMSO control)) [%]",effect on insulin secretion ([3]; negative control quinoline compounds)
"COc1cc(Nc2cc(C#N)nc3cc(F)ccc23)c(Cl)cc1Cl [Compound 12, 4-(2,4-dichloro-5-methoxy-anilino)-7-fluoro-quinoline-2-carbonitrile]",> 240,dramatically increased,-20,immediately,more than 5 fold,more than 10 fold,longer lasting effect,3,induced divalent calcium cation influx,induces divalent calcium cation influx; also recorded: induced Ca2+ influx,more effective,significantly superior activity,85,
"COc1cc(Nc2ccnc3cc(OCc4ccccc4)c(OC)cc23)c(Cl)cc1Cl [Compound 73, 7-benzyloxy-N-(2,4-dichloro-5-methoxy-phenyl)-6-methoxy-quinolin-4-amine]",,,,,,,,,did not show any increase,,,,,didn't show any effect
"COc1ccc(Cl)cc1C(=O)NCCc1ccc(S(=O)(=O)NC(=O)NC2CCCCC2)cc1 [GBA, glibenclamide, reference compound]",90,,,small delayed response,,,,,"caused calcium influx, however, with a delayed response",,,,,
